Assay results from article PMC6155162, “Identification of mesothelioma-specific sialylated epitope recognized with monoclonal antibody SKM9-2 in a mucin-like membrane protein HEG1” (Scientific Reports, 2018).
Entries after “also recorded” stand apart in the source; their conditions may differ.

Key:
[1] = test system: recombinant Agrocybe cylindracea lectin (rACG); experiment: SPR lectin binding analysis of SKMepmin3: rACG; settings: non-treated SKMepmin3, rACG 5 µg/mL
Description: (§1) Figure 7 SPR analysis of bindings of lectin and SKM9-2 to glycosidase-treated SKMepmin3. Purified SKMepmin3 was incubated with α2-3 Neuraminidase S, Neuraminidase A, or Neuraminidase A + O-Glycosidase; and then was immobilized as a ligand on Ni^2+-binding sensor chip NTA. The analytes were used at a concentration of 5 µg/mL. (a) ABA, (b) Jacalin, (c) rACG, (d) SKM9-2. Glycosidase-digested sample was not tested in the experiment with rACG.
(§2) The binding of SKM9-2 or lectin to SKMepmin was measured by SPR analysis. SKMepmin was diluted with a running buffer (10 mM HEPES buffer (pH 8.1) containing 150 mM NaCl and 0.005% Tween-20), flowed on Ni^2+-binding sensor chip NTA (GE Healthcare), and affinity-bound through His-tag as a ligand on the sensor chip. Binding analysis of SKM9-2 was performed in a running buffer containing 50 µM EDTA. A non-treated flow cell was used as a reference cell. SKM9-2, anti-sialyl Lewis^X (CSLEX1, Becton, Dickinson and Company Japan, Tokyo, Japan), rACG (Wako Pure Chemical Industries), biotinylated ABA (J-Oil Mills, Inc., Tokyo, Japan), or biotinylated Jacalin (Vector Laboratories, Inc., Burlingame, CA, USA) (each 5 µg/mL) was injected as an analyte with the running buffer. As a regeneration buffer, 350 mM EDTA was used. The dissociation constant was calculated using the manufacturer’s instructions.

[2] = test system: Agaricus bisporus agglutinin (ABA); experiment: SPR lectin binding analysis of glycosidase-treated SKMepmin3: ABA; settings: ABA 5 µg/mL
Description: as §1
(§3) Cell lysate or SKMepmin3 was treated with α2-3 Neuraminidase S, α2-3, 6, 8, 9 Neuraminidase A, and O-Glycosidase (New England Biolabs Japan, Tokyo, Japan) in 50 mM sodium phosphate (pH 7.5) containing 1% Nonidet P-40, according to the manufacturer’s instructions. The cell lysate sample was resolved by 4–15% or 6% SDS-PAGE under reducing conditions and detected by western blotting using SKM9-2. The analysis of the SKMepmin3 sample was performed by SPR.
as §2

[3] = test system: anti-sialyl Lewis^X (CSLEX1); experiment: SPR analysis of binding of anti-sialyl LewisX to SKMepmin3; settings: purified SKMepmin3 on sensor chip NTA, analyte 5 µg/mL
Description: as §2
Supplementary Fig. S2. SPR analysis of binding of anti-sialyl LewisX to SKMepmin3.
Purified SKMepmin3 was immobilized as a ligand on Ni2+-binding sensor chip NTA. The analytes
were used at the concentration of 5 µg/mL.

[4] = molecular target: SKM9-2; experiment: SPR analysis of binding between SKM9-2 and soluble His-tagged minimum epitope peptides (SKMepmin)
Description: Figure 5 SPR analysis of the binding kinetics between SKM9-2 and mutants of minimum epitope. A soluble His-tagged mutant of minimum epitope (SKMepmin) was secreted from transfected HEK293T and immobilized as a ligand on the Ni^2+-binding sensor chip NTA. The upper sensorgrams show the binding kinetics of analyte (5 µg/mL of SKM9-2) to SKMepmins. The control without any peptide is shown as “No peptide” and the negative control peptide cycle is shown as “Control peptide”. The glycan-digested SKMepmin3 that was treated with Neuraminidase A and O-Glycosidase was used as the negative control peptide. The dissociation constant in the lower bar graph was calculated using the manufacturer’s instructions. RU, response units; Signal sequence, the artificial signal sequence (MAPLLLLLLPLLLLPPAAP).
as §1, §3, §2

[5] = test system: Jacalin; experiment: SPR lectin binding analysis of glycosidase-treated SKMepmin3: Jacalin
Description: as §1, §3, §2

[6] = test system: SKM9-2; experiment: Deglycosylation analysis: western blotting using SKM9-2 of neuraminidase-treated cell lysates; assay type: binding; settings: full-length HEG1, lysates of ACC-MESO4 (native) or HEG1-transfected HEK293T, 6% SDS-PAGE
Source text: Figure 8 SKM9-2 epitope produced from mesothelioma cells. (a) Chromatogram of SKMepmin3 separation using anion exchange column. SKMepmin3 produced from HEK293T (blue line) or ACC-MESO4 (pink line) was affinity-purified using SKM9-2-immobilized resins and separated by Mini Q 4.6/50 PE. A major peak of SKMepmin3 purified from HEK293T contained two disialyl T antigens (Fig. 6). (b) Western blotting for epitope-fused GPI-anchor protein (7.6231) treated with neuraminidases. Cell lysate of 7.6231-transfected ACC-MESO1 (top panel), ACC-MESO4 (middle panel), or HEK293T (lower panel) was treated with α2-3 Neuraminidase S or Neuraminidase A, resolved by 4–15% SDS-PAGE, and analyzed by western blotting using SKM9-2. (c) Western blotting for full-length HEG1 treated with neuraminidases. Cell lysates of ACC-MESO4 (upper panel) and HEG1-transfected HEK293T (lower panel) were treated with α2-3 Neuraminidase S or Neuraminidase A and analyzed by 6% SDS-PAGE and western blotting using SKM9-2. (d) Schematic of SKM9-2 epitope. Full-length blots are presented in Supplementary Fig. S10.
Monolayer cells were solubilized with 20 mM Tris buffer (pH 8.0) containing 1% SDS, 1 mM phenylmethylsulfonyl fluoride, 125 mU/mL Benzonase Nuclease (Merck Millipore Co., Tokyo, Japan) (25 µL/cm^2 culture surface area). The lysate (10 µL/lane) was resolved by SDS-PAGE under reducing conditions using 6% polyacrylamide gels or 4–15% precast gels (Bio-Rad Laboratories Inc., Hercules, CA, USA). Then it was transferred to a polyvinylidene difluoride membrane (Immobilon-P; Merck Millipore Co.) by semi-dry blotting in a buffer containing 25 mM Tris, 192 mM glycine, 0.1% SDS, and 20% methanol. The membrane was blocked with 5% non-fat milk in 20 mM Tris-buffered saline (pH 7.2) containing 0.1% Tween 20 and reacted with 1 µg/mL of mAb SKM9-2 or anti-FLAG (Anti-DYKDDDDK tag mAb; 1E6, Wako Pure Chemical Industries, Osaka, Japan). After washing, it was treated with horseradish peroxidase-conjugated goat anti-mouse IgG (Jackson ImmunoResearch, West Grove, PA, USA), and developed with Amersham ECL select (GE Healthcare, Buckinghamshire, UK). Although glycan in non-fat milk often interferes the glycan-dependent binding of an antibody, the SKM9-2 binding was not affected by the blocking using non-fat milk, in comparison with 5% bovine serum albumin (Supplementary Fig. S6).
as §3

In the case of “MAPLLLLLLPLLLLPPAAPGGSKAPSLVSLPAGGDYKDDDDKHHHHHHHH [SKMepmin3, minimum glycosylation peptide 893-…-903 -FLAG-Hisx8 with two disialyl T at Ser893 and Ser900]”, the rACG binding [1] is reported as “interacted”, the ABA binding ([2]; SKMepmin3 deglycosylated with O-Glycosidase and Neuraminidase A) is reported as “lost” and the ABA binding ([2]; SKMepmin3 desialylated with Neuraminidase A) is reported as “enhanced”. For the same molecule, the ABA binding ([2]; non-treated SKMepmin3 as ligand) was “bound”, the “anti-sialyl Lewis^X antibody binding” value [3] was “did not bind; also recorded: not bound” and the Kd ([4]; His-tagged SKMepmin secreted from transfected HEK293T immobilized on Ni2+-binding sensor chip NTA, analyte 5 µg/mL SKM9-2, running buffer 10 mM HEPES pH 8.1, 150 mM NaCl, 0.005% Tween-20, 50 µM EDTA, read-out: KD (M), dissociation constant) was 2.82e-09 M. For the same molecule, the “persistent binding of SKM9-2” value ([4]; SKMepmin3 desialylated with Neuraminidase A, SKM9-2 5 µg/mL) was “lost”, the SKM9-2 binding ([4]; SKMepmin3 treated with α2–3 Neuraminidase S, SKM9-2 5 µg/mL) was “weakened” and the “association rate between SKM9-2 and epitope peptide (in words)” value ([4]; analyte 5 µg/mL SKM9-2, change caused by the substitution) was “increased”. The “interaction between SKM9-2 and SKMepmin3” value ([4]; complete digest of glycan using O-Glycosidase (with Neuraminidase A), SKM9-2 5 µg/mL) was “eliminated”, the Jacalin binding ([5]; SKMepmin3 desialylated with Neuraminidase A, Jacalin 5 µg/mL) was “recognized” and the Jacalin binding ([5]; deglycosylated SKMepmin3 (Neuraminidase A + O-Glycosidase), Jacalin 5 µg/mL) was “not”. For the same molecule, the Jacalin binding ([5]; non-treated SKMepmin3, Jacalin 5 µg/mL) was “did not bind”.

B1: recombinant HEG1: full-length recombinant HEG1 (1-1481) expressed in HEK293T (protein, UniProt Q9ULI3 1-1381, looked up)
chain: MASPRASRWPPPLLLLLLPLLLLPPAAPGTRDPPPSPARRALSLAPLAGAGLELQLERRPEREPPPTPPRERRGPATPGPSYRAPEPGAATQRGPSGRAPRGGSADAAWKHWPESNTEAHVENITFYQNQEDFSTVSSKEGVMVQTSGKSHAASDAPENLTLLAETADARGRSGSSSRTNFTILPVGYSLEIATALTSQSGNLASESLHLPSSSSEFDERIAAFQTKSGTASEMGTERAMGLSEEWTVHSQEATTSAWSPSFLPALEMGELTTPSRKRNSSGPDLSWLHFYRTAASSPLLDLSSSSESTEKLNNSTGLQSSSVSQTKTMHVATVFTDGGPRTLRSLTVSLGPVSKTEGFPKDSRIATTSSSVLLSPSAVESRRNSRVTGNPGDEEFIEPSTENEFGLTSLRWQNDSPTFGEHQLASSSEVQNGSPMSQTETVSRSVAPMRGGEITAHWLLTNSTTSADVTGSSASYPEGVNASVLTQFSDSTVQSGGSHTALGDRSYSESSSTSSSESLNSSAPRGERSIAGISYGQVRGTAIEQRTSSDHTDHTYLSSTFTKGERALLSITDNSSSSDIVESSTSYIKISNSSHSEYSSFFHAQTERSNISSYDGEYAQPSTESPVLHTSNLPSYTPTINMPNTSVVLDTDAEFVSDSSSSSSSSSSSSSSGPPLPLPSVSQSHHLFSSILPSTRASVHLLKSTSDASTPWSSSPSPLPVSLTTSTSAPLSVSQTTLPQSSSTPVLPRARETPVTSFQTSTMTSFMTMLHSSQTADLKSQSTPHQEKVITESKSPSLVSLPTESTKAVTTNSPLPPSLTESSTEQTLPATSTNLAQMSPTFTTTILKTSQPLMTTPGTLSSTASLVTGPIAVQTTAGKQLSLTHPEILVPQISTEGGISTERNRVIVDATTGLIPLTSVPTSAKEMTTKLGVTAEYSPASRSLGTSPSPQTTVVSTAEDLAPKSATFAVQSSTQSPTTVSSSASVNSCAVNPCLHNGECVADNTSRGYHCRCPPSWQGDDCSVDVNECLSNPCPSTAMCNNTQGSFICKCPVGYQLEKGICNLVRTFVTEFKLKRTFLNTTVEKHSDLQEVENEITKTLNMCFSALPSYIRSTVHASRESNAVVISLQTTFSLASNVTLFDLADRMQKCVNSCKSSAEVCQLLGSQRRIFRAGSLCKRKSPECDKDTSICTDLDGVALCQCKSGYFQFNKMDHSCRACEDGYRLENETCMSCPFGLGGLNCGNPYQLITVVIAAAGGGLLLILGIALIVTCCRKNKNDISKLIFKSGDFQMSPYAEYPKNPRSQEWGREAIEMHENGSTKNLLQMTDVYYSPTSVRNPELERNGLYPAYTGLPGSRHSCIFPGQYNPSFISDESRRRDYF
modifications: full-length FLAG tag
notes: full-length recombinant HEG1 (1-1481) expressed in HEK293T
With B1 the “SKM9-2 binding (western blot)” value ([6]; Neuraminidase A) was “lost” and the “SKM9-2 binding (western blot)” value ([6]; α2–3 Neuraminidase S) was “weakened”.
